The assay has as its system THP-1 cells. Nature of the assay: THP-1 Soluble Protein Assay (LPS-stimulated; ELISA of TNF-a, TNF-R p75/80, TNF-R p55/60, IL-8). It counts as cell-based, human. Particulars: for inhibition at 3 µM: Homo sapiens. A general note: ELISA stands for enzyme-linked immunosorbent assay.
The mark [1] stands for this setting: THP-1, read-out: THP % inhibition @ 3 µM, 3 µM.
Setting [2] is: THP-1, 3 µM, read-out: THP % Inhibition @ 3µM.

Structures can show the parent of a compound that is named as a salt. Where two headings read alike, the source gives them in different places.

Here are results for 35 molecules from EP1144368B1, “ACETYLENIC ALPHA-AMINO ACID-BASED SULFONAMIDE HYDROXAMIC ACID TACE INHIBITORS” (priority 1999, dated 2000).

Protocol: Each vial of cells are cultured for about two weeks prior to being used for an assay and then are used for only 4 to 6 weeks to screen compounds.
Plates are placed into an incubator set at 5% CO2 and at 37° C. After 4 hours of incubation, 300 ml/well of tissue culture supernatant (TCS) is removed for use in an TNF-a ELISA.
Percent change in each soluble protein evaluated from the "vehicle positive control" was calculated for each compound concentration with the following formula: % Change =(pg/ml (compound) - pg/ml (veh pos control))/(pg/ml (veh pos control) - pg/ml (veh neg control))x 100 [formula]
For the soluble protein (TNF-a, p75/80, p55/60, IL-8) studies under stimulated conditions, the mean pg/ml of duplicate wells were determined and the results expressed as percent change from "vehicle positive control".

A word on the inhibition: it is the change of the read-out against control, counted positive when it falls. Turning to `CC#CCOc1ccc(S(=O)(=O)N(CCC)C(C(=O)NO)C(C)C)cc1` (centres unmarked) [Example 110, 2-[(4-But-2-ynyloxy-benzenesulfonyl)-propyl-amino]-N-hydroxy-3-methyl-butyramide], under setting [1], the inhibition at 3 µM was found to be 47%.

Take `CC#CCOc1ccc(S(=O)(=O)N2CCN(C(=O)OCc3ccccc3)CC2C(=O)NO)cc1` (centres unmarked) [Example 219, Benzyl 4-{[4-(2-butynyloxy)phenyl]sulfonyl}-3-[(hydroxyamino)carbonyl]-1-piperazinecarboxylate]: the inhibition at 3 µM under setting [1] was found to be 87%.

Take `CC#CCOc1ccc(S(=O)(=O)N2CCN(C(=O)N(CC)CC)CC2C(=O)NO)cc1` (centres unmarked) [Example 216, 4-(4-But-2-ynyloxy-benzenesulfonyl)-piperazine-1,3-dicarboxylic acid 1-diethylamide 3-hydroxyamide]: the inhibition at 3 µM under setting [1] turned out to be 59%.

On to `CC#CCOc1ccc(S(=O)(=O)N(C)C(C(=O)NO)c2ccc(OCCN3CCNCC3)cc2)cc1` (centres unmarked) [Example 186, 2-[{[4-(2-butynyloxy)phenyl]sulfonyl}(methyl)amino]-N-hydroxy-2-{4-[2-(1-piperazinyl)ethoxy]phenyl}acetamide], for which the inhibition at 3 µM under setting [1] came to 93%.

Take `CC#CCOc1ccc(S(=O)(=O)N(C)C(C(=O)NO)c2ccc(OCCCN)cc2)cc1` (centres unmarked) [Example 188, 2-[4-(3-Aminopropoxy)phenyl]-2-[{[4-(2-butynyloxy)phenyl]sulfonyl}(methyl)amino]-N-hydroxyacetamide]: under setting [1], the inhibition at 3 µM turned out to be 94%.

In the case of `CCCCC#CCOc1ccc(S(=O)(=O)N2CCSC(C)(C)C2C(=O)NO)cc1` (centres unmarked) [Example 40, 4-(4-Hept-2-ynyloxy-benzenesulfonyl)-2,2-dimethyl-thiomorpholine-3-carboxylic acid hydroxyamide], the inhibition at 3 µM under setting [1] turned out to be 82%.

Take `CC#CCOc1ccc(S(=O)(=O)N(C)C(C(=O)NO)C(C)(C)SCCn2ccnc2)cc1` (centres unmarked) [Example 144, 2-({[4-(2-Butynyloxy)phenyl]sulfonyl)(methyl)amino]-N-hydroxy-3-methyl-3-{[2-(1H-imidazol-1-yl)ethyl]sulfanyl}butanamide]: the inhibition at 3 µM under setting [1] was determined as 89%.

For `CC#CCOc1ccc(S(=O)(=O)N2CC[S+]([O-])C(C)(C)C2C(=O)NO)cc1` (single isomer, unassigned) [Example 255], the “THP % inhibition @ 3 µM” value (3 µM) is recorded as 95%.

For `CC#CCOc1ccc(S(=O)(=O)N2[C@H](C)CSC(C)(C)[C@@H]2C(=O)NO)cc1` [Example 271, (3S,5R)-4-{[4-(2-Butynyloxy)phenyl]sulfonyl}-N-hydroxy-2,2,5-trimethyl-3-thiomorpholinecarboxamide], the inhibition at 3 µM under setting [2] turned out to be 82%.

Take `CC#CCOc1ccc(S(=O)(=O)N(CCCN2CCOCC2)C(C(=O)NO)C(C)C)cc1` (centres unmarked) [Example 119, 2-{{[4-(2-Butynyloxy)phenyl]sulfonyl}[3-(4-morpholinyl)propyl]amino}-N-hydroxy-3-methylbutanamide]: the inhibition at 3 µM under setting [1] was 61%.

For the molecule `CC#CCOc1ccc(S(=O)(=O)NC(C(=O)NO)c2ccc(OCCN3CCN(C(=O)OC(C)(C)C)CC3)cc2)cc1` (centres unmarked) [Example 202, tert-Butyl 4-(2-{4-[1-({[4-(2-butynyloxy)phenyl]sulfonyl}amino)-2-(hydroxyamino)-2-oxoethyl)phenoxy]ethyl)-1-piperazinecarboxylate], the inhibition at 3 µM under setting [1] was 45%.

With `CC#CCOc1ccc(S(=O)(=O)N(CC#CCN2CCN(C)CC2)C(C)C(=O)NO)cc1` (centres unmarked) [Example 135, 2-{[[4-(2-butynyloxy)phenyl]sulfonyl][4-(4-methyl-1-piperazinyl)-2-butynylamino]}-N-hydroxypropanamide], under setting [1], the inhibition at 3 µM was found to be 76%.

Turning to `CC#CCOc1ccc(S(=O)(=O)NC(C(=O)NO)c2ccc(OCCN3CCOCC3)cc2)cc1` (centres unmarked) [Example 206, 2-({[4-(2-Butynyloxy)phenyl]sulfonyl}amino)-N-hydroxy-2-{4-[2-(4-morpholinyl)ethoxy]phenyl}acetamide], the inhibition at 3 µM under setting [1] was 70%.

In the case of `CC#CCOc1ccc(S(=O)(=O)N(C)[C@@H](C(=O)NO)C2CCC(N(CC)CC)CC2)cc1` (stereo partly drawn) [Example 128, ((2R)-{[4-(2-Butynyloxy)phenyl]sulfonyl}(methyl)amino)[(4-diethylamino)cyclohexyl]-N-hydroxyethamide], under setting [1], the inhibition at 3 µM worked out at 51%.

As to `CC1(C)SCCN(S(=O)(=O)c2ccc(OCC#Cc3ccccc3)cc2)[C@H]1C(=O)NO` [Example 254, (3S)-N-Hydroxy-2,2-dimethyl-4-({4-[(3-phenyl-2-propynyl)oxy]phenyl}sulfonyl)-3-thiomorpholine carboxamide], under setting [1], the inhibition at 3 µM stood at 77%.

With `CC#CCOc1ccc(S(=O)(=O)NC(C(=O)NO)c2ccc(OCCc3scnc3C)cc2)cc1` (centres unmarked) [Example 208, 2-({[4-(2-Butynyloxy)phenyl]sulfonyl}amino)-N-hydroxy-2-{4-[2-(4-methyl-1,3-thiazol-5-yl)ethoxy]phenyl}acetamide], the inhibition at 3 µM under setting [1] turned out to be 74%.

In the case of `CC#CCOc1ccc(S(=O)(=O)N(C)C(C(=O)NO)C(C)(C)SCCN2CCN(C)CC2)cc1` (centres unmarked) [Example 141], the inhibition at 3 µM under setting [1] was determined as 86%.

`CC#CCOc1ccc(S(=O)(=O)N2CCS(=O)(=O)C(C)(C)[C@@H]2C(=O)NO)cc1` [Example 257, (3S)-4-{[4-(2-Butynyloxy)phenyl]sulfonyl}-N-hydroxy-2,2-dimethyl-3-thiomorpholine carboxamide 1,1-dioxide]: under setting [1], the inhibition at 3 µM worked out at 91%.

Regarding `CC#CCOc1ccc(S(=O)(=O)NC(C(=O)NO)c2ccc(OCCN3CCCC3)cc2)cc1` (centres unmarked) [Example 205, 2-({[4-(2-Butynyloxy)phenyl]sulfonyl}amino)-N-hydroxy-2-{4-[2-(1-pyrrolidinyl)ethoxy]phenyl}acetamide], under setting [1], the inhibition at 3 µM amounted to 66%.

With `CC#CCOc1ccc(S(=O)(=O)N(CC2CC2)C(C(=O)NO)C(C)C)cc1` (centres unmarked) [Example 112, 2-[(4-But-2-ynyloxy-benzenesulfonyl)-cyclopropylmethyl-amino]-N-hydroxy-3-methyl-butyramide], the inhibition at 3 µM under setting [1] turned out to be 50%.

`CC#CCOc1ccc(S(=O)(=O)N(Cc2cccnc2)C2(C(=O)NO)CCCCC2)cc1` [Example 137, 1-[{[4-(2-Butynyloxy)phenyl]sulfonyl}(3-pyridinylmethyl)amino] N-hydroxycyclohexanecarboxamide]: the inhibition at 3 µM under setting [1] was 0%.

`CC#CCOc1ccc(S(=O)(=O)N(C)[C@@H](C(=O)NO)[C@H]2CC[C@H](O)CC2)cc1` [Example 130]: the inhibition at 3 µM under setting [1] was 92%.

Turning to `CC#CCOc1ccc(S(=O)(=O)N(C)C(C(=O)NO)c2ccc(OCCCNC(=O)OCCCC)cc2)cc1` (centres unmarked) [Example 195, Butyl 3-{4-[1-[{[4-(2-butynyloxy)phenyl]sulfonyl}(methyl)amino]-2-(hydroxyamino)-2-oxoethyl]phenoxy}propylcarbamate], the inhibition at 3 µM under setting [1] came to 90%.

For the molecule `CC#CCOc1ccc(S(=O)(=O)N(C)[C@H](CSC)C(=O)NO)cc1` [Example 154], the inhibition at 3 µM under setting [1] was 90%.

In the case of `CC#CCOc1ccc(S(=O)(=O)N2CCCN(C(=O)c3ccccc3)CC2C(=O)NO)cc1` (centres unmarked) [Example 49, 4-Benzoyl-1-(4-but-2-ynyloxy-benzenesulfonyl)-[1,4]diazepane-2-carboxylic acid hydroxyamide], the inhibition at 3 µM under setting [2] came out at 32%.

On to `CC#CCOc1ccc(S(=O)(=O)N(C)C(C(=O)NO)C(C)(C)SCCCN2CCN(C)CC2)cc1` (centres unmarked) [Example 147, 2-({[4-(2-Butynyloxy)phenyl]sulfonyl)(methyl)amino]-N-hydroxy-3-methyl-3-{[2(4-methyl-1-ethyl-1-piperazinyl)propyl]sulfanyl}butanamide], for which the inhibition at 3 µM under setting [1] came to 89%.

As to `CC1(C)SCCN(S(=O)(=O)c2ccc(OCC#CCCO)cc2)C1C(=O)NO` (centres unmarked) [Example 244, N-Hydroxy-4-({4-[(5-hydroxy-2-pentynyl)oxy]phenyl}sulfonyl)-2,2-dimethyl-3-thiomorpholine carboxamide], the inhibition at 3 µM under setting [1] was found to be 57%.

Take `CC#CCOc1ccc(S(=O)(=O)NC(C(=O)NO)c2ccc(OCCN(C)C)cc2)cc1` (centres unmarked) [Example 207, 2-({[4-(2-Butynyloxy)phenyl]sulfonyl}amino){4-[2-(dimethylamino)ethoxy]phenyl}-N-hydroxyacetamide]: the inhibition at 3 µM under setting [1] came out at 51%.

Turning to `CC#CCOc1ccc(S(=O)(=O)N2CSC(C)(C)[C@@H]2C(=O)NO)cc1` [Example 286, (4S)-3-{(4-(2-Butynyloxy)phenyl]sulfonyl}-N-hydroxy-5,5-dimethyl-1,3-thiazolidine-4-carboxamide], the inhibition at 3 µM under setting [2] turned out to be 73%.

Regarding `CC#CCOc1ccc(S(=O)(=O)N(C)C(CCCSc2ccc(Cl)cc2)C(=O)NO)cc1` (centres unmarked) [Example 213, 2-[{[4-(2-Butynyloxy)phenyl]sulfonyl}(methyl)amino]-5-[(4-chlorophenyl)sulfanyl]-N-hydroxypentanamide], the inhibition at 3 µM under setting [1] was found to be 87%.

As to `CC#CCOc1ccc(S(=O)(=O)N2C[C@H](CC(N)=O)SC(C)(C)[C@@H]2C(=O)NO)cc1` [Example 280, (3S,6S)-6-(2-Amino-2-oxoethyl)-4-{[4-(2-butynyloxy)phenyl]sulfonyl}-N-hydroxy-2,2-dimethyl-3-thiomorpholinecarboxamide], the inhibition at 3 µM under setting [2] was 91%.

Turning to `CC1(C)SCCN(S(=O)(=O)c2ccc(OCC#CCN)cc2)C1C(=O)NO` (centres unmarked) [Example 265, 4-({4-[(4-Amino-2-butynyl)oxy]phenyl}sulfonyl)-N-hydroxy-2,2-dimethyl-3-thiomorpholine carboxamide], the inhibition at 3 µM under setting [1] was 40%.

`CC#CCOc1ccc(S(=O)(=O)N(C)C(C(=O)NO)C2CCCCC2)cc1` (centres unmarked) [Example 115, 2-[(4-But-2-ynyloxy-benzenesulfonyl)-methyl-amino]-2-cyclohexyl-N-hydroxy-acetamide]: the inhibition at 3 µM under setting [1] came to 89%.

Turning to `CC#CCOc1ccc(S(=O)(=O)N2C[C@H](CC(=O)N3CCN(C)CC3)SC(C)(C)[C@@H]2C(=O)NO)cc1` [Example 283, (3S,6S)-4-{[4-(2-Butynyloxy)phenyl]sulfonyl}-N-hydroxy-2,2-dimethyl-6-[2-(4-methyl-1-piperazinyl)-2-oxoethyl]-3-thiomorpholinecarboxamide hydrochloride], the inhibition at 3 µM under setting [2] came to 90%.

Consider `CC1(C)SCCN(S(=O)(=O)c2ccc(OCC#CCCCCO)cc2)[C@H]1C(=O)NO` [Example 269, (3S)-N-Hydroxy-4-({4-[(7-hydroxy-2-heptynyl)oxy]phenyl}sulfonyl)-2,2-dimethyl-3-thiomorpholinecarboxamide], for which the inhibition at 3 µM under setting [1] is 77%.
